In assay [1] the test system is ID188 patient-derived PDAC 2D line (pre-FOLFIRINOX). The assay can be described thus: normalised area under dose-response curve (viability relative to DMSO, 7 doses up to 10 µM) (fraction (AUC)); higher = less sensitive (more viability retained). The conditions noted are these: 72 h; top dose: 10 µM. As for the experimental part:
(§1)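 Patient-derived 2D PDAC cells (ID188 pre-FOLFIRINOX, passage 5+27; ID211 post-FOLFIRINOX, passage 9+11), 1,500-3,000 cells/well in 96-well plates, were treated with a 415-compound Selleck library in seven concentrations (3-fold dilution series, top 10 µM) for 72 h. Viability was read by CellTiter-Glo ATP luminescence, normalised to the DMSO control, and the area under the dose-response curve was computed with the GRmetrics R package; a lower AUC means higher sensitivity.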

Assay [2] relates to ID211 patient-derived PDAC 2D line (post-FOLFIRINOX). The assay is described as above. The conditions noted are these: 72 h; top dose: 10 µM. The protocol: as §1

Counter-ions that a name gives are not always drawn.

For `CC(C)(O)CNc1ncc(-c2ccnc(Nc3ccnc(Cl)c3)n2)c(CC2CC2)n1` [VPS34-IN1], the “normalised area under dose-response curve” value (“normalised area” below) in assay [1] turned out to be 0.949; in assay [2], 0.824.

With `Cc1nc(Nc2ncc(C(=O)Nc3c(C)cccc3Cl)s2)cc(N2CCN(CCO)CC2)n1` [Dasatinib hydrochloride], the “normalised area” value in assay [1] came to 0.377; in assay [2] it was 0.468.

Regarding `O=C1C2CCN(CC2)C1(CO)CO` [PRIMA-1], the “normalised area” value amounted to 0.947 in assay [1] and 0.867 in assay [2].

Consider `Cc1sc2c(c1C)C(c1ccc(Cl)cc1)=N[C@@H](CC(=O)OC(C)(C)C)c1nnc(C)n1-2` [(+)-JQ1], for which the “normalised area” value in assay [1] turned out to be 0.842; in assay [2], 0.652.

In the case of `COC(=O)c1ccc2c(c1)nc(NC(=O)c1ccccc1)n2CCCc1ccccc1` [BRD4770], the figures for the “normalised area” value in assay [1] and in assay [2] were 0.887 and 0.836, respectively.

Take `COc1cc2nc(N3CCCC3)nc(NCCCCCN3CCCC3)c2cc1OC` [UNC0379]: the “normalised area” value in assay [1] came out at 0.943; in assay [2], 0.829.

For `Cc1nc(C(=O)NCC(=O)O)c(O)c2ccc(Oc3ccccc3)cc12` [Roxadustat (FG-4592)], the results for the “normalised area” value in assay [1] and in assay [2] were 0.951 and 0.842, respectively.

Consider `CCn1cc(-c2cccc(C(F)(F)F)c2)c2sc(C(=N)NC3CCS(=O)(=O)CC3)cc2c1=O` [I-BRD9], for which the “normalised area” value in assay [1] was determined as 1.01; in assay [2] it was 0.833.

Regarding `CCC(CC)CC1(C(=O)Nc2ccccc2SC(=O)C(C)C)CCCCC1`, the “normalised area” value in assay [1] worked out at 0.929; in assay [2], 0.859.

With `COc1cccc2c1C(=O)c1c(O)c3c(c(O)c1C2=O)CC(O)(C(=O)CO)CC3OC1CC(N)C(O)C(C)O1` (configuration not stated) [Doxorubicin (Adriamycin) HCl], the “normalised area” value was 0.672 in assay [1] and 0.584 in assay [2].

For `CCOC(=O)c1ccc(N2NC(=O)C(=Cc3ccc([N+](=O)[O-])o3)C2=O)cc1` [PYR-41], the “normalised area” value in assay [1] was 0.91; in assay [2], 0.807.

For the compound `CNC(=O)[C@H](Cc1c[nH]c2ccccc12)NC(=O)[C@@H](CC(=O)NO)CC(C)C` [Ilomastat (GM6001, Galardin)], the results for the “normalised area” value in assay [1] and in assay [2] were 1.05 and 0.809, respectively.

Regarding `Cc1[nH]c2ccccc2c1CCNCc1ccc(/C=C/C(=O)NO)cc1` [Panobinostat (LBH589)], the “normalised area” value came out at 0.421 in assay [1] and 0.306 in assay [2].

`C=CC(=O)N1CCC[C@@H](n2nc(-c3ccc(Oc4ccccc4)cc3)c3c(N)ncnc32)C1`: the “normalised area” value in assay [1] was determined as 0.794; in assay [2] it was 0.71.

Consider `C[C@@H](C(=O)Nc1ccc(Cl)cc1)C1CCC(c2ccnc3ccc(F)cc23)CC1` (some centres not stated), for which the “normalised area” value was 0.882 in assay [1] and 0.863 in assay [2].

Consider `O=C(CCNC(=O)c1ccc(OC(F)(F)F)cc1)N[C@@H]1CCCc2ccccc21` [ML390], for which the “normalised area” value in assay [1] is 0.983; in assay [2], 0.788.

For `C[C@@H]1COCCN1c1cc(C2([S@](C)(=N)=O)CC2)nc(-c2cc[nH]c3nccc2-3)n1` [AZD6738], the results for the “normalised area” value in assay [1] and in assay [2] were 0.805 and 0.749, respectively.

Turning to `Cc1ccc(C(=O)Nc2cccc(C(F)(F)F)c2)cc1Nc1nc(-c2cccnc2)nc2c1cnn2C` [NVP-BHG712], the “normalised area” value in assay [1] was found to be 0.869; in assay [2] it was 0.831.

For `O=C(O)C(Cc1ccccc1[N+](=O)[O-])=NNc1nc(-c2ccc(Cl)c(Cl)c2)cs1` (mixture of isomers) [4EGI-1], the “normalised area” value is 0.549 in assay [1] and 0.889 in assay [2].

On to `Cn1cc(-c2ccc3nnc(Sc4ccc5ncccc5c4)n3n2)cn1` [SGX-523], for which the results for the “normalised area” value in assay [1] and in assay [2] were 0.983 and 0.941, respectively.

In the case of `O=C(c1ccc(F)c(F)c1Nc1ccc(I)cc1F)N1CC(O)([C@@H]2CCCCN2)C1` [Cobimetinib (GDC-0973, RG7420)], the results for the “normalised area” value in assay [1] and in assay [2] were 0.639 and 0.26, respectively.

In the case of `O=C(CBr)N1CC([N+](=O)[O-])([N+](=O)[O-])C1` [RRx-001], the entries for the “normalised area” value in assay [1] and in assay [2] were 0.915 and 0.843, respectively.

Take `CCn1c(-c2nonc2N)nc2c(C#CC(C)(C)O)ncc(OC[C@H]3CCCNC3)c21`: the “normalised area” value in assay [1] was 0.83; in assay [2] it was 0.836.

Take `Cc1ccc(C(=O)N(CCCN)[C@@H](c2nc3cc(Cl)ccc3c(=O)n2Cc2ccccc2)C(C)C)cc1`: the “normalised area” value in assay [1] turned out to be 0.5; in assay [2], 0.697.

In the case of `O=C(Nc1ccccc1)c1cc([N+](=O)[O-])ccc1Cl` [GW9662], the “normalised area” value came out at 0.931 in assay [1] and 0.936 in assay [2].

Regarding `COc1cc(N2CCN(C)CC2)ccc1Nc1nccc(-c2cn(C)c3cnccc23)n1` [AZ191], the “normalised area” value in assay [1] is 0.971; in assay [2], 0.867.

On to `C[C@@H](N)[C@H]1CC[C@H](C(=O)Nc2ccncc2)CC1`, for which the results for the “normalised area” value in assay [1] and in assay [2] were 0.941 and 0.922, respectively.

`O=C(O)c1nn(Cc2ccc(Cl)cc2Cl)c2ccccc12` [Lonidamine]: the “normalised area” value came to 0.934 in assay [1] and 0.87 in assay [2].

`CCn1c2ccccc2c2cc(CNCc3ccccc3OC)ccc21` [HLCL-61 HCL]: the entries for the “normalised area” value in assay [1] and in assay [2] were 0.957 and 0.856, respectively.

Turning to `Cc1ccc(-c2cc(C(F)(F)F)nn2-c2ccc(S(N)(=O)=O)cc2)cc1` [Celecoxib], the figures for the “normalised area” value in assay [1] and in assay [2] were 0.935 and 0.892, respectively.

In the case of `CCOc1cc2ncc(C#N)c(Nc3ccc(F)c(Cl)c3)c2cc1NC(=O)/C=C/CN(C)C` [Pelitinib (EKB-569)], the results for the “normalised area” value in assay [1] and in assay [2] were 0.846 and 0.631, respectively.

With `CCc1cnn2c(NCc3ccc[n+]([O-])c3)cc(N3CCCC[C@H]3CCO)nc12`, the figures for the “normalised area” value in assay [1] and in assay [2] were 0.426 and 0.161, respectively.

As for `CCNC(=O)C#Cc1ccc2c(C(=Nc3ccc(CN(C)C)cc3)c3ccccc3)c(O)[nH]c2c1`, the “normalised area” value amounted to 0.621 in assay [1] and 0.264 in assay [2].

Turning to `CC(C)N(CCCNC(=O)Nc1ccc(C(C)(C)C)cc1)C[C@H]1O[C@@H](n2ccc3c(N)ncnc32)[C@H](O)[C@@H]1O`, the “normalised area” value in assay [1] was found to be 0.952; in assay [2], 0.899.

Consider `Cc1ccc(NC(=O)c2cccc(C(C)(C)C#N)c2)cc1Nc1ccc2ncn(C)c(=O)c2c1` [AZ 628], for which the “normalised area” value in assay [1] stood at 0.898; in assay [2] it was 0.634.

On to `NS(=O)(=O)NCCNc1nonc1/C(=N/O)Nc1ccc(F)c(Br)c1`, for which the “normalised area” value came to 0.924 in assay [1] and 0.909 in assay [2].

The values are drawn from the supplement of paper PMC8988213.
